Test results from ChEMBL document CHEMBL1121481, “Synthetic immunostimulants derived from the bacterial cell wall” (J Med Chem, 1980).

What was measured:
Mus musculus [1] = assay: Compound was tested for protective activity in mice infected with Klebsiella pneumoniae; compound is pyrogenic at 1 mg/kg; assay type: functional, organism-based; set-up: dose 1 mg/kg
Oryctolagus cuniculus [2] = organism: Oryctolagus cuniculus; assay: Compound was tested for pyrogenicity in the rabbit; pyrogenic at 100 ug/mL.; assay type: functional, organism-based
Limulus [3] = assay: Compound was evaluated by Limulus amoebocyte lysate test; positive at 100 ug/mL; assay type: functional
Mus musculus [4] = assay: Compound was tested for antibody titer in mice after injection with antigen in saline; compound is pyrogenic at 1 mg/kg; assay type: functional, organism-based; set-up: dose 1 mg/kg
Cavia porcellus [5] = assay: Compound was tested for delayed hypersensitivity in guinea pig after administration in a water in oil emulsion; compound is pyrogenic at 1 mg/kg; assay type: functional, organism-based; set-up: dose 1 mg/kg
Mus musculus [6] = assay: Compound was tested for [3H]- -thymidine uptake in mouse spleen cell cultures; compound is pyrogenic at 1 mg/kg; assay type: functional, organism-based; set-up: dose 1 mg/kg
Mus musculus [7] = assay: Compound was tested for protective activity in mice infected with Klebsiella pneumoniae; non pyrogenic at 1 mg/kg; assay type: functional, organism-based; set-up: dose 1 mg/kg
Oryctolagus cuniculus [8] = organism: Oryctolagus cuniculus; assay: Compound was tested for pyrogenicity in the rabbit; Delayed hypersensitivity; assay type: functional, organism-based
Limulus [9] = assay: Compound was evaluated by Limulus amoebocyte lysate test; negative at 100 ug/mL; assay type: functional, organism-based
Cavia porcellus [10] = assay: Compound was tested for delayed hypersensitivity in guinea pig after administration in a water in oil emulsion; compound is non pyrogenic at 1 mg/kg; assay type: functional, organism-based; set-up: dose 1 mg/kg
Oryctolagus cuniculus [11] = assay: Compound was tested for pyrogenicity in the rabbit; non pyrogenic at 1 mg/kg; assay type: functional, organism-based; set-up: dose 1 mg/kg
Mus musculus [12] = assay: Compound was tested for protective activity in mice infected with Klebsiella pneumoniae; compound is non pyrogenic at 1 mg/kg; assay type: functional, organism-based; set-up: dose 1 mg/kg
Cavia porcellus [13] = assay: Compound was tested for delayed hypersensitivity in guinea pig after administration in a water in oil emulsion; non pyrogenic at 1 mg/kg; assay type: functional, organism-based; set-up: dose 1 mg/kg
Limulus [14] = assay: Compound was evaluated by Limulus amoebocyte lysate test; positive at 10 ug/mL; assay type: functional, organism-based
Oryctolagus cuniculus [15] = organism: Oryctolagus cuniculus; assay: Compound was tested for pyrogenicity in the rabbit; non pyrogenic at […]; assay type: functional, organism-based
Mus musculus [16] = assay: Compound was tested for antibody titer in mice after injection with antigen in saline;compound is pyrogenic at 1 mg/kg; assay type: functional, organism-based; set-up: dose 1 mg/kg
Limulus [17] = assay: Compound was evaluated by Limulus amoebocyte lysate test; Positive at 100 ug/mL; assay type: functional, organism-based
Mus musculus [18] = assay: Compound was tested for [3H]thymidine uptake in mouse spleen cell cultures; compound is pyrogenic at 1 mg/kg; assay type: functional, organism-based; set-up: dose 1 mg/kg

Row | Compound | Anti-infectious effect (Mus musculus [1]) | Pyrogenic effect (Oryctolagus cuniculus [2]) | LAL test (Limulus [3]) | Adjuvant effect (Mus musculus [4]) | Adjuvant effect (Cavia porcellus [5]) | Mitogenic effect (Mus musculus [6]) | Pyrogenic effect (Oryctolagus cuniculus [8]) | LAL test (Limulus [9]) | other results
1 | CC(=O)N[C@H]1C(O)O[C@H](CO)[C@@H](O)[C@@H]1O[C@H](C)C(=O)N[C@@H](C)C(=O)N[C@H](CCC(=O)O)C(N)=O (stereo partly specified) | pyrogenic at 1 mg/kg | pyrogenic at 100 ug/mL | positive at 100 ug/mL | pyrogenic at 1 mg/kg | pyrogenic at 1 mg/kg | pyrogenic at 1 mg/kg | – | – | –
2 | COC(=O)C(CCC(N)=O)NC(=O)C(C)NC(=O)C(C)OC1[C@H](O)C(CO)O[C@@H](O)[C@H]1NC(C)=O (stereo partly specified) | – | – | positive at 100 ug/mL | pyrogenic at 1 mg/kg | pyrogenic at 1 mg/kg | pyrogenic at 1 mg/kg | Not toxic | – | Anti-infectious effect (Mus musculus [7]): Not toxic
3 | CC(=O)N[C@H]1C(OC(C)C(=O)NC(C)C(=O)NC(CCC(=O)O)C(=O)O)[C@H](O)C(CO)O[C@H]1O (stereo partly specified) | pyrogenic at 1 mg/kg | – | – | pyrogenic at 1 mg/kg | – | pyrogenic at 1 mg/kg | – | negative at 100 ug/mL | Adjuvant effect (Cavia porcellus [10]): Not toxic; Pyrogenic effect (Oryctolagus cuniculus [11]): Not toxic
4 | CC(=O)N[C@H]1[C@@H](O[C@@H](C)C(=O)N[C@@H](C)C(=O)N[C@H](CCC(=O)N[C@@H](CCCCN)C(=O)N[C@H](C)C(=O)O)C(N)=O)[C@H](O)[C@H](CO)O[C@H]1O | – | pyrogenic at 100 ug/mL | – | pyrogenic at 1 mg/kg | pyrogenic at 1 mg/kg | pyrogenic at 1 mg/kg | – | Not toxic | Anti-infectious effect (Mus musculus [12]): Not toxic
5 | CC(=O)N[C@H]1C(OC(C)C(=O)NC(C)C(=O)NC(CCC(N)=O)C(=O)O)[C@H](O)C(CO)O[C@H]1O (stereo partly specified) | pyrogenic at 1 mg/kg | – | – | – | – | pyrogenic at 1 mg/kg | – | – | Adjuvant effect (Cavia porcellus [13]): Not toxic; LAL test (Limulus [14]): positive at 10 ug/mL; Pyrogenic effect (Oryctolagus cuniculus [15]): Not toxic; Adjuvant effect (Mus musculus [16]): pyrogenic at 1 mg/kg
6 | COC(=O)CCC(NC(=O)C(C)NC(=O)C(C)OC1[C@H](O)C(CO)O[C@@H](O)[C@H]1NC(C)=O)C(=O)OC (stereo partly specified) | pyrogenic at 1 mg/kg | – | – | pyrogenic at 1 mg/kg | pyrogenic at 1 mg/kg | – | Not toxic | – | LAL test (Limulus [17]): Positive at 100 ug/mL; Mitogenic effect (Mus musculus [18]): pyrogenic at 1 mg/kg
